Test results as given in PubChem BioAssay AID1949 (Southern Research Institute, 2009).
In brackets after ≈: the same amount, converted by molar mass. Results filed as inconclusive are left out. Activity calls are given as the source filed them. How the calls were made is not given here.

Tested on: M. tuberculosis H37Rv growth inhibition
Test: Mycobacterium tuberculosis H37Rv growth inhibition, cell based, confirmatory dose response (AID 1949);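 further: bacteria grown 7 days with compound before Alamar blue readout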

**Q.** With `COc1ccc(-c2csc(-c3cccnc3)n2)cc1C` as the molecule, how does the IC50 read?
**A.** 12.9 µg/mL (≈ 45.9 µM)

**Q.** With `COc1ccc(NC(=O)CC23CC4CC(CC(C4)C2)C3)cc1Cl` as the molecule, how does the IC50 read?
**A.** 3.05 µg/mL (≈ 9.14 µM)

**Q.** How did the IC50 turn out when `COC(=O)COc1ccc2c(=O)c(Oc3ccccc3OC)c(C)oc2c1` was run?
**A.** 1.39 µg/mL (≈ 3.75 µM)

**Q.** How did the IC50 turn out when `CC(C)(C)c1cc(Cl)c(O)c(NC(=S)NC(=O)c2cncc(Br)c2)c1` was run?
**A.** < 0.1 µg/mL

**Q.** `C=CCOc1c(Cl)cc(/C=C/[N+](=O)[O-])cc1OCC` was tested. Which IC50 did it give?
**A.** 23.4 µg/mL (≈ 82.5 µM)

**Q.** How did the IC50 turn out when `CN(C)C(=S)Nc1nc2ccccc2s1` was run?
**A.** < 0.1 µg/mL

**Q.** `O=[N+]([O-])c1c(-n2cccn2)nn(-c2ccccc2)c1C(Cl)Cl` was tested. Which IC50 did it give?
**A.** 3.09 µg/mL (≈ 9.14 µM)

**Q.** For `CC(C)(C)c1ccc(OCCN2C(=O)C(=O)c3cc(Br)ccc32)cc1`, which IC50 is on record?
**A.** 1.49 µg/mL (≈ 3.7 µM)

**Q.** How did the IC50 turn out when `CCc1ccccc1N1C(=O)c2cccc3c([N+](=O)[O-])ccc(c23)C1=O` was run?
**A.** 19 µg/mL (≈ 54.9 µM)

**Q.** Which IC50 does the source give for `Cc1cc(Br)c2[nH]c(O)c(N=NC(=O)COc3ccc4ccccc4c3)c2c1` here?
**A.** 12 µg/mL (≈ 27.5 µM)

**Q.** Which IC50 does the source give for `CCC(C)Oc1c(Cl)cc(/C=C\[N+](=O)[O-])cc1OC` (centres undefined) here?
**A.** > 50 µg/mL (inactive)

**Q.** How did the IC50 turn out when `CCCCNCCOc1ccc2ccccc2c1Br` was run?
**A.** 7.65 µg/mL (≈ 23.7 µM)

**Q.** How did the IC50 turn out when `Cc1ccc(S(=O)(=O)c2nc(S(=O)(=O)Cc3ccc([N+](=O)[O-])cc3)sc2Cl)cc1` was run?
**A.** 1.04 µg/mL (≈ 2.2 µM)

**Q.** `COc1cccc(C2=CC(c3c(F)cccc3Cl)n3nnnc3N2)c1` (centres undefined) was tested. Which IC50 did it give?
**A.** 7.55 µg/mL (≈ 21.1 µM)

**Q.** `O=C(Nc1ccc(Cl)c(C(F)(F)F)c1)c1csc2c1CCCC2` was tested. Which IC50 did it give?
**A.** 2.66 µg/mL (≈ 7.39 µM)

**Q.** How did the IC50 turn out when `CCOc1ccc(OCc2ccc(C(=O)Nc3ccc(Cl)cn3)o2)cc1` was run?
**A.** 19.9 µg/mL (≈ 53.5 µM)

**Q.** For `O=C(Nc1ccc(OCC(F)(F)C(F)F)c(C(F)(F)F)c1)c1ccccc1O`, which IC50 is on record?
**A.** 5.26 µg/mL (≈ 12.8 µM)

**Q.** With `O=C(O)c1ccc(-n2nnnc2SCc2ccccc2F)cc1` as the molecule, how does the IC50 read?
**A.** > 50 µg/mL (inactive)

**Q.** `O=C(Nc1ccc([N+](=O)[O-])cc1)N1CCN(c2cccc(C(F)(F)F)c2)CC1` was tested. Which IC50 did it give?
**A.** 1.56 µg/mL (≈ 3.96 µM)

**Q.** For `CCC(=O)Oc1ccc(C(=O)Nc2cc3oc4ccccc4c3cc2OC)cc1`, which IC50 is on record?
**A.** 1.46 µg/mL (≈ 3.75 µM)

**Q.** With `CNCCCOc1ccc(Cl)cc1C(C)(C)C` as the molecule, how does the IC50 read?
**A.** 7.95 µg/mL (≈ 31.1 µM)

**Q.** With `CC(C)OC(=O)COc1ccc(C(=O)NCc2ccccc2)cc1` as the molecule, how does the IC50 read?
**A.** 0.91 µg/mL (≈ 2.78 µM)

**Q.** `COC(=O)c1c(NC(=O)c2c(F)c(F)c(F)c(F)c2F)sc2c1CCCCC2` was tested. Which IC50 did it give?
**A.** 0.36 µg/mL (≈ 0.858 µM)

**Q.** `CCn1cc(C(=O)O)c(=O)c2cc(F)c(N3CCN(S(=O)(=O)c4ccc(NC(C)=O)cc4)CC3)cc21` was tested. Which IC50 did it give?
**A.** 36.6 µg/mL (≈ 70.8 µM)

**Q.** With `S=C(NCc1ccc(Cl)cc1)N1CCN(C/C=C/c2ccccc2)CC1` as the molecule, how does the IC50 read?
**A.** 1.99 µg/mL (≈ 5.16 µM)

**Q.** How did the IC50 turn out when `O=C(CCc1ccccc1)NC(=S)Nc1ccc(N2CCCCC2)cc1` was run?
**A.** 0.27 µg/mL (≈ 0.735 µM)

**Q.** Which IC50 does the source give for `CCOC(=O)COc1ccc(C(=O)Nc2cccc(Cl)c2C)cc1` here?
**A.** < 0.1 µg/mL

**Q.** With `Cc1ccc(Cn2cnc3sc4c(c3c2=O)CCCC4)cc1` as the molecule, how does the IC50 read?
**A.** 8.41 µg/mL (≈ 27.1 µM)

**Q.** With `O=C(CC(Nc1ccc(F)cc1)c1ccccc1)c1ccccc1` (centres undefined) as the molecule, how does the IC50 read?
**A.** 9.26 µg/mL (≈ 29 µM)

**Q.** Which IC50 does the source give for `COc1cccc(NC(=O)c2c(NC(=O)c3cccnc3)sc3c2CCC3)c1` here?
**A.** 0.1 µg/mL (≈ 0.254 µM)

**Q.** For `COc1ccc(CNC(=O)c2sc3nc4c(c(C(F)(F)F)c3c2N)CC(C)CC4)cc1OC` (centres undefined), which IC50 is on record?
**A.** > 50 µg/mL (inactive)

**Q.** Which IC50 does the source give for `CCOC(=O)COc1ccc2c3c(c(=O)oc2c1C)CCC3` here?
**A.** > 50 µg/mL (inactive)

**Q.** How did the IC50 turn out when `CCOC(=O)Cn1cc(C#N)c2cccc(CC)c21` was run?
**A.** 0.87 µg/mL (≈ 3.39 µM)

**Q.** `CC1CCc2c(sc3nc4c5ccccc5c(N5CCN(CCO)CC5)nn4c(=O)c23)C1` (centres undefined) was tested. Which IC50 did it give?
**A.** 4.86 µg/mL (≈ 10.8 µM)

**Q.** For `COc1ccc(CCNc2nc(N3CCCC3)nc(N3CCCC3)n2)cc1OC`, which IC50 is on record?
**A.** 5.35 µg/mL (≈ 13.4 µM)

**Q.** With `Cc1ccc(Nc2nc(NCc3ccco3)c3ccccc3n2)cc1` as the molecule, how does the IC50 read?
**A.** 1.44 µg/mL (≈ 4.36 µM)

**Q.** Which IC50 does the source give for `COc1ccc(CCNc2nc(-c3ccccn3)cs2)cc1OC` here?
**A.** 0.72 µg/mL (≈ 2.11 µM)

**Q.** `Cc1cccc(NC(=O)Nc2ccc(C(F)(F)F)cc2)c1` was tested. Which IC50 did it give?
**A.** 8.07 µg/mL (≈ 27.4 µM)

**Q.** How did the IC50 turn out when `Cc1ccc(NC(=O)C2C3CC/C=C\CC/C=C/CCC32)cc1C` (centres undefined) was run?
**A.** 23.6 µg/mL (≈ 72.8 µM)

**Q.** `Cc1cccnc1Nc1nc(-c2ccccn2)cs1` was tested. Which IC50 did it give?
**A.** < 0.1 µg/mL

**Q.** How did the IC50 turn out when `Cc1cc(C)cc(-c2nc(-c3cccnc3)no2)c1` was run?
**A.** 47.7 µg/mL (≈ 190 µM)

**Q.** For `O=C(COc1ccc2c(-c3ccccc3)cc(=O)oc2c1)OC1CCCCC1`, which IC50 is on record?
**A.** < 0.1 µg/mL

**Q.** Which IC50 does the source give for `CCCc1cc(C(=O)OC)c(NC(=O)c2cc3ccccc3oc2=O)s1` here?
**A.** 39.4 µg/mL (≈ 106 µM)

**Q.** With `N#Cc1cc(-c2nc3ccccc3[nH]2)c(N)n2c1nc1ccccc12` as the molecule, how does the IC50 read?
**A.** 11.5 µg/mL (≈ 35.5 µM)

**Q.** `CCc1ccccc1NC(=O)c1cc2cc([N+](=O)[O-])cc(OC)c2oc1=O` was tested. Which IC50 did it give?
**A.** > 50 µg/mL (inactive)

**Q.** How did the IC50 turn out when `CCOC(=O)COc1ccc(Br)c(C=O)c1` was run?
**A.** 5.47 µg/mL (≈ 19.1 µM)

**Q.** With `CC(C)(C)Nc1nc(N2CCCC2)nc(N2CCCC2)n1` as the molecule, how does the IC50 read?
**A.** > 50 µg/mL (inactive)

**Q.** For `Cc1ccc(NC(=S)Nc2ccc(Cl)c(Cl)c2)c(OC(F)F)c1`, which IC50 is on record?
**A.** 2.92 µg/mL (≈ 7.74 µM)

**Q.** With `Cc1ccc2nc(Cc3nc4ccc(C)cc4[nH]3)[nH]c2c1` as the molecule, how does the IC50 read?
**A.** > 50 µg/mL (inactive)

**Q.** `Cc1ccc(C(=O)NCCC2=CCCCC2)cc1Br` was tested. Which IC50 did it give?
**A.** 3.14 µg/mL (≈ 9.74 µM)

**Q.** With `Nc1ncnc2c1[nH]c(=S)n2CCOc1cccc2ccccc12` as the molecule, how does the IC50 read?
**A.** 10.9 µg/mL (≈ 32.5 µM)

**Q.** For `Clc1ccc(SCCCn2ccnc2)cc1`, which IC50 is on record?
**A.** 2.36 µg/mL (≈ 9.34 µM)

**Q.** With `O=C(NCc1ccccc1)c1cc2cc(Cl)cc(Cl)c2oc1=O` as the molecule, how does the IC50 read?
**A.** > 50 µg/mL (inactive)

**Q.** `COc1cc(NC(=O)c2ccc3c(c2)OCCO3)ccc1NC(=O)c1ccccc1Cl` was tested. Which IC50 did it give?
**A.** 0.66 µg/mL (≈ 1.5 µM)

**Q.** For `Cc1ccc2[nH]c3c(c2c1)CCCC3NCCCOc1ccc(F)cc1` (centres undefined), which IC50 is on record?
**A.** 1.7 µg/mL (≈ 4.82 µM)

**Q.** With `Cc1cc(C)c(N2CCN(S(=O)(=O)c3ccc(Cl)cc3)CC2)c(C)c1` as the molecule, how does the IC50 read?
**A.** > 50 µg/mL (inactive)

**Q.** `Cc1ccc(C(=O)Nc2ccc(C(F)(F)F)cc2)s1` was tested. Which IC50 did it give?
**A.** 4.67 µg/mL (≈ 16.4 µM)

**Q.** `O=C(CCN1CCc2ccccc2CC1)c1ccc2c(c1)OCCO2` was tested. Which IC50 did it give?
**A.** 8.36 µg/mL (≈ 24.8 µM)

**Q.** How did the IC50 turn out when `COc1ccccc1-c1c(C)oc2cc(OCC(=O)OCc3ccccc3)ccc2c1=O` was run?
**A.** 0.36 µg/mL (≈ 0.836 µM)
